Target: Mitogen-activated protein kinase kinase kinase 9 (Homo sapiens, UniProt P80192)
Assay: Evaluation of Inhibitory Activity of Enzyme Units

Chain of Mitogen-activated protein kinase kinase kinase 9 (P80192 whole entry): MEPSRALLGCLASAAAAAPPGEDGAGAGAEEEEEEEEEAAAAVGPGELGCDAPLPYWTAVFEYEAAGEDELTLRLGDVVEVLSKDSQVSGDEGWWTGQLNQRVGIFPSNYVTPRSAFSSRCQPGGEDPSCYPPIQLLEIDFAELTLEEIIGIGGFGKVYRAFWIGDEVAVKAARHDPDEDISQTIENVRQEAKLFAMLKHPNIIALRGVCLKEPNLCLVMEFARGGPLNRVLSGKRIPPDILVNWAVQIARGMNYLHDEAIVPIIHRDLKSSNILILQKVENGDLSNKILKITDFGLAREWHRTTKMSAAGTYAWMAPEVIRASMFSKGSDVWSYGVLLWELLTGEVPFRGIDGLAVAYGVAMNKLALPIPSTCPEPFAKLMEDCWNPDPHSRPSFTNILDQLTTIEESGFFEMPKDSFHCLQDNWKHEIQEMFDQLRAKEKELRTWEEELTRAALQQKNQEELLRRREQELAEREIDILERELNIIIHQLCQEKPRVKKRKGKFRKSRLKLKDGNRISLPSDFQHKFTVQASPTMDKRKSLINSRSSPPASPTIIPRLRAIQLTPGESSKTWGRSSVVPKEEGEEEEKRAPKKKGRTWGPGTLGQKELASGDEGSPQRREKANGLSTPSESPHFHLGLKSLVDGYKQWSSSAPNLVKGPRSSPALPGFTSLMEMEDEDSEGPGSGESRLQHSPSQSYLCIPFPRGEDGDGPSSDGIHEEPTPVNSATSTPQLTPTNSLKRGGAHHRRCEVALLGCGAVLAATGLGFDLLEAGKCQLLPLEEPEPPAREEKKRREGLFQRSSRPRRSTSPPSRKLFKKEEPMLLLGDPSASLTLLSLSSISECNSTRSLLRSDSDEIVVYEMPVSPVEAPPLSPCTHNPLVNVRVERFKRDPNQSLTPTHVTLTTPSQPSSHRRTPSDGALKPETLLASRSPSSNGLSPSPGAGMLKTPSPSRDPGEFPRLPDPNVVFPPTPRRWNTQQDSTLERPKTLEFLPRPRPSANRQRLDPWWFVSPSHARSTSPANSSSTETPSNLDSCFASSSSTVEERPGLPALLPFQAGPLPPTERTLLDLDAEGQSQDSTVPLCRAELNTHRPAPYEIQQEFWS

`CCS(=O)(=O)N1CC[C@H](Nc2c(Br)cnc3nc(-c4cc(C)n(-c5ccc(OCCN6CCOCC6)cc5)c4C)[nH]c23)C1` [US12545673, Example 4] was tested, and the IC50 was 0.056 µM.

— BindingDB's records for patent US12545673 (TSD Life Sciences, 2026)
